SMILES strings stand for the structures.

The test system of the test is Rhynchophorus palmarum. Briefly: Field trapping study of Rhynchophorus palmarum control in palm tree groves (baited traps, 1 month, French Guiana). Conditions: second (last) Total capture column; period not printed separately (study dates March-May 1997); total insects in all traps with the same test substance. The test is classed as in vivo. The text has this: Study of Rhynchophorus palmarum Control in Palm Tree Groves
This experiment was designed to assess the control of Rhynchophorus palmarum control in ornamental, palm trees and in coconut palms according to the characteristics indicated hereunder.
Insect species against which the experiment was designed: Rhynchophorus palmarum, Coleoptera curculionidae, Rhynchophorinae.
Testing area: Cayenne—Remire Montjoly, French Guiana.
Plants: Ornamental palm tree groves and coconut palms.
Substances tested: • (a) Vegetal bait (sugar cane in 25 cm lengths cut lengthwise through the middle and fermented during 24 hours at 28° C., and Rhynchophorol (synthetic feromone) • (b) INIA 1 composition and Rhynchophorol. • (c) INIA 2 composition and Rhynchophorol. • (c) INIA 3 composition and Rhynchophorol. • (e) Reference specimen (only Rhynchophorol).
A randomly selected “double blind” test was repeated 4 times in traps installed over trash cans modified to include spreaders comprising a supporting agent capable of absorbing/adsorbing and releasing the compositions to be tested and designed to emit said compositions.
The vegetal bait, namely cut-up cane, was arranged in a bundle on the bottom of the trap can. Feromone (Rhynchophorol) was released from small hermetic plastic 200 μm envelopes loaded with 0.2 cm^3 of synthetic feromone spreading a minimum of 2 mg/day through pores in the trap. […]

As to `C/C=C/C(O)CC(C)C` (stereo not shown) [(e), Rhynchophorol], the Total capture was 3.
